Measured values published in ChEMBL document CHEMBL4118250, “Discovery of Novel Pyrazole-Based Selective Aldosterone Synthase (CYP11B2) Inhibitors: A New Template to Coordinate the Heme-Iron Motif of CYP11B2” (J Med Chem, 2018).

Tests used:
[1] = Apparent passive permeability in human Caco2 cells; format: ADME, cell-based; conditions: Caco-2
[2] = Solubility of the compound; format: physicochemical
Cynomolgus monkey [3] = test: Time at which maximum plasma concentration stays above in vitro human CYP11B2 IC50 in cynomolgus monkey at 3 mg/kg, po administered as single dose by LC-MS/MS analysis; format: ADME, organism-based, Macaca fascicularis; conditions: in vivo
Cynomolgus monkey [4] = test: Time at which maximum plasma concentration stays below in vitro human CYP11B2 IC50 in cynomolgus monkey at 3 mg/kg, po administered as single dose by LC-MS/MS analysis; format: ADME, organism-based, Macaca fascicularis; conditions: in vivo
[5] = Tmax in cynomolgus monkey at 1 mg/kg, po administered as single dose by LC-MS/MS analysis; format: ADME, organism-based, Macaca fascicularis; conditions: in vivo

Cc1cc(C#N)ccc1-c1cnn2c1C[C@@H](O)C2
Papp [1]: 68.4 ×10⁻⁶ cm/s | solubility [2]: Soluble | Time (Cynomolgus monkey [3]): 8 h | Time (Cynomolgus monkey [4]): 24 h

Cc1cc(C#N)ccc1-c1cnn2c1C[C@@H](Oc1ncc(F)cn1)C2
Papp [1]: 62.3 ×10⁻⁶ cm/s | Tmax [5]: 4 h
